# Experimental data taken from patent US20070092551A1, “Therapeutic agent” (TAKARA BIO INC., priority 2003, published 2007).
# Read-outs that look alike come from different tables or passages of the source.
# Key:
# [1] = system: mature adipocytes (3T3-L1 cells); assay: Enhancing action on glucose uptake (2-deoxyglucose) into mature adipocytes; type: cell-based; conditions: Mus musculus
# [2] = Toxicity test, forcible oral administration for 3 consecutive days; type: in vivo; conditions: female ICR mice, 1 g/kg forcibly orally once a day for 3 days, in CMC or olive oil
# Procedure: The influence of 4-hydroxyderricin and xanthoangelol by forcible oral administration for 3 consecutive days was examined using female 12-week old ICR mice (Japan SLC, Inc.). 4-Hydroxyderricin or xanthoangelol was suspended or dissolved in a 0.5% (w/v) carboxymethyl cellulose solution (CMC) or an olive oil so as to have a concentration of 20% (w/v). The suspension or solution was forcibly orally administered once a day for 3 days in an amount of 5 mL per 1 kg body weight (1 g/kg in terms of 4-hydroxyderricin or xanthoangelol). Three cases were used for each group.
# [3] = system: type II diabetes model mice; assay: Suppressive effects on incidence of diabetes (blend feed); type: in vivo, KK-Ay mice; conditions: 0.15% blend feed; for Blood Glucose Level, Previous Day: male 5-week old KK-Ay mice, day before beginning of administration; for Blood Glucose Level, Previous Day / Amount of Drunk Water, Ninth to Fifteenth Day / Amount of Drunk Water, Second to Eighth Day / Blood Glucose Level, Fifteenth Day: mean ± standard error; for effects for suppressing the incidence of diabetes (in words) / changes in body weight, amount of feed taken and general symptoms / Amount of Drunk Water, Ninth to Fifteenth Day / Amount of Drunk Water, Second to Eighth Day / Blood Glucose Level, Fifteenth Day: male KK-Ay mice; for changes in body weight, amount of feed taken and general symptoms: experimental period
# Procedure: The suppressive effects of xanthoangelol and 4-hydroxyderricin on incidence of diabetes were examined using type II diabetes model mice. Experiments were carried out with seven male 5-week old KK-Ay mice (CLEA Japan, Inc.) per group. Xanthoangelol and 4-hydroxyderricin were each mixed in a powder feed (CE-2: CLEA Japan, Inc.) so as to have a ratio of 0.15%, and the mice were fed with the blended power feed. The mice in the control group were fed with the powder feed (CE-2). On the day before the beginning of administration, and on the fifteenth day, the blood glucose level was determined in the same manner as in Example 88. In addition, as an index of the incidence of diabetes, amounts of drunk water from the second to eighth days and from the ninth to fifteenth days from the administration were determined, and an average amount of drunk water per day was calculated, respectively. By administration of a mixed feed with xanthoangelol or 4-hydroxyderricin, the suppression of increase in a blood glucose level was found. Further, the suppression of increase in the amount of drunk water which is an index of the incidence of diabetes was found. […] During the experimental period, no changes were found in body weight, amount of feed taken and general symptoms.
# [4] = 3T3-L1, 30 μM, X=(S−N)/(P−N) of 2-deoxyglucose uptake, P=insulin 1 μg/mL, read-out: Enhancing Action on Glucose Uptake
# [5] = 3T3-L1, read-out: Enhancing Action on Glucose Uptake
# [6] = 3T3-L1, 10 μM, X=(S−N)/(P−N) of 2-deoxyglucose uptake, P=insulin 1 μg/mL, read-out: Enhancing Action on Glucose Uptake
SMILES,"activation at 30 µM [1, 4] [%]","activation at 3 µM [1, 5] [%]","activation at 10 µM [1, 5] [%]","activation at 30 µM [1, 5] [%]",cases of death [2],change in general symptom [2],"Blood Glucose Level, Previous Day [3] [mg/dL]",effects for suppressing the incidence of diabetes (in words) [3],"changes in body weight, amount of feed taken and general symptoms [3]","Amount of Drunk Water, Ninth to Fifteenth Day [3] [mL/day]","Amount of Drunk Water, Second to Eighth Day [3] [mL/day]","Blood Glucose Level, Fifteenth Day [3] [mg/dL]","activation at 10 µM [1, 6] [%]","activation at 3 µM ([1]; 3T3-L1, 3 μM, X=(S−N)/(P−N) of 2-deoxyglucose uptake, P=insulin 1 μg/mL, read-out: Enhancing Action on Glucose Uptake) [%]"
COc1ccc(C(=O)/C=C/c2ccc(O)cc2)c2c1CC(O)C(C)(C)O2 (stereo not shown) [Xanthoangelol H],30 to 60,–,–,–,–,–,–,–,–,–,–,–,–,–
"COc1ccc(C(=O)/C=C/c2ccc(O)cc2)c(O)c1CC=C(C)C [4-Hydroxyderricin, 4,2′-Dihydroxy-3′-prenyl-4′-methoxychalcone]",–,60 to 100,> 100,> 100,No cases of death,no change,226 ± 14,effects for suppressing the incidence of diabetes was found,no changes,10.0 ± 0.6,7.6 ± 0.2,354 ± 24,–,–
"CC(C)=CCC/C(C)=C/Cc1c(O)ccc(C(=O)/C=C/c2ccc(O)cc2)c1O [Xanthoangelol, 4,2′,4′-Trihydroxy-3′-geranylchalcone]",> 100,–,–,–,No cases of death,no change,232 ± 11,effects for suppressing the incidence of diabetes was found,no changes,14.6 ± 2.0,10.3 ± 1.3,426 ± 39,30 to 60,–
"COc1ccc(C(=O)/C=C/c2ccc(O)cc2)c(O)c1C/C=C(\C)CCC=C(C)C [Xanthoangelol F, 4,2′-Dihydroxy-3′-geranyl-4′-methoxychalcone]",> 100,–,–,–,–,–,–,–,–,–,–,–,> 100,30 to 60
